Experimental data: patent US20100286193A1, “Novel Azabicyclo[3.2.1]Oct-2-Ene Derivatives and Their Use as Monoamine Neurotransmitter Re-Uptake Inhibitors” (priority 2005, published 2010)
pIC50: −log10 of the molar value. Structures can show the parent of a compound that is named as a salt.

Experiments:
[1] = molecular target: T1, dopamine (DA) reuptake in synaptosomes (Rattus norvegicus, UniProt P23977); assay: Inhibition of dopamine reuptake in synaptosomes; type: biochemical; conditions: 3H-DA, as described in WO 97/16451, read-out: DA-uptake IC50
T1 construct: in synaptosomes as described in WO 97/16451; from tissue
T1 sequence (P23977 whole entry): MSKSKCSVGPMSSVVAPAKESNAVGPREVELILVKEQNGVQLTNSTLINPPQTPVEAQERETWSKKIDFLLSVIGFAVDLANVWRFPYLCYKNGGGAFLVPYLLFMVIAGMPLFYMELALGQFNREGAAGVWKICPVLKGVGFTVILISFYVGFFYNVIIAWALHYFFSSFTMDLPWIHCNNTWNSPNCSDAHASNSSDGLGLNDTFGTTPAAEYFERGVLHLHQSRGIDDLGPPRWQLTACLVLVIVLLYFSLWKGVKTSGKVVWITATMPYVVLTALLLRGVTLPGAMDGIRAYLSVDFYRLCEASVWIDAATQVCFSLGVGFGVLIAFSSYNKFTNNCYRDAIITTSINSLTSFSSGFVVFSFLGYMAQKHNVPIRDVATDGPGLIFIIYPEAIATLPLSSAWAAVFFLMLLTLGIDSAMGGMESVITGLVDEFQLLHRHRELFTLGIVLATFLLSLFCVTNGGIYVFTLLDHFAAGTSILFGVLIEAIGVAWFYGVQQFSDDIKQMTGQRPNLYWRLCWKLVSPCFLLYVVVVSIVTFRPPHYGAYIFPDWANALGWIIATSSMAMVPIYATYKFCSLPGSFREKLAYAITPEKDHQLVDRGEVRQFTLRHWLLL

[2] = molecular target: T2, serotonine (5-HT) reuptake in synaptosomes (Rattus norvegicus, UniProt P31652); assay: Inhibition of serotonin reuptake in synaptosomes; type: biochemical; conditions: 3H-5-HT, as described in WO 97/16451, read-out: 5-HT-uptake IC50
T2 construct: in synaptosomes as described in WO 97/16451; from tissue
T2 sequence (P31652 whole entry): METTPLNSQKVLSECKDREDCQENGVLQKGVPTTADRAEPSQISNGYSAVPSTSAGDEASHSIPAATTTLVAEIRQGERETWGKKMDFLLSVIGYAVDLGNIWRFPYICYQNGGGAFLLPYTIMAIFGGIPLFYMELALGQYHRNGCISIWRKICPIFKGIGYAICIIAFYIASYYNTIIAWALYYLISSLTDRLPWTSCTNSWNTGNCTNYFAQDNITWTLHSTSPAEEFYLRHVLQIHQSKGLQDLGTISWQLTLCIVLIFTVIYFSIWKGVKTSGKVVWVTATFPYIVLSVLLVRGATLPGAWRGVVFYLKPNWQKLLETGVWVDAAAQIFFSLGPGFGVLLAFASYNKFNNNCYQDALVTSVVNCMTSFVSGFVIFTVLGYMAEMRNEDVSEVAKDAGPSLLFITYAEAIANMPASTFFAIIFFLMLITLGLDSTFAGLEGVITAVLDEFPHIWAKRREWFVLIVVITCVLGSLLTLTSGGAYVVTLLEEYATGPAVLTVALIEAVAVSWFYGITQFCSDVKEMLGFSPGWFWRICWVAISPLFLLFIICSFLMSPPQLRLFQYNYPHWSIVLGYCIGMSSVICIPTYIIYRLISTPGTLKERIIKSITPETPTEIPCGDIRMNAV

[3] = molecular target: T3, noradrenaline (NA) reuptake in synaptosomes (Rattus norvegicus, UniProt Q63380); assay: Inhibition of noradrenaline reuptake in synaptosomes; type: biochemical; conditions: 3H-NA, as described in WO 97/16451, read-out: NA-uptake IC50
T3 construct: in synaptosomes as described in WO 97/16451; from tissue
T3 sequence (Q63380 1-617): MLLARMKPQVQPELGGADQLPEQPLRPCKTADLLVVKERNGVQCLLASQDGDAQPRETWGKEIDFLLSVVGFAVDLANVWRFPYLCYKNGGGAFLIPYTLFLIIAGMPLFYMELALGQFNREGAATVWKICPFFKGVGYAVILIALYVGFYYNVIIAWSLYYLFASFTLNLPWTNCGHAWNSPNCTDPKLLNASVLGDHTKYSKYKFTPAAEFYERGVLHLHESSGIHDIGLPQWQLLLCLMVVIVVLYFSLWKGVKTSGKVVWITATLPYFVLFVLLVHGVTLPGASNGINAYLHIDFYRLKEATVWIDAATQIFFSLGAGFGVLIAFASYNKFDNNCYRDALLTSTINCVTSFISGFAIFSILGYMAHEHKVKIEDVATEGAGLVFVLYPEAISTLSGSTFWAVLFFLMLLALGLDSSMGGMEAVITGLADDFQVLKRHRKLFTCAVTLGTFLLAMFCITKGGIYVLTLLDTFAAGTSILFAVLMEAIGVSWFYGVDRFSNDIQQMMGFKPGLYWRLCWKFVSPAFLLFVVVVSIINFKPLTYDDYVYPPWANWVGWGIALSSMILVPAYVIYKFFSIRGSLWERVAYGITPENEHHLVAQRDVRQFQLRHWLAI

Structure (SMILES)	melting point [°C]	pIC50 [1]	pIC50 [2]	pIC50 [3]
Cc1cc(C2=CC3CCC(C2)N3)ccc1Cl (single isomer, unassigned; (+)) (as salt: tartaric acid salt) [(+)-3-(4-Chloro-3-methylphenyl)-8-H-8-azabicyclo[3.2.1]oct-2-ene D-tartaric acid salt]	164 to 177	–	–	–
Cc1cc(C2=CC3CCC(C2)N3)ccc1Cl (single isomer, unassigned; (+)) [(+)-3-(4-Chloro-3-methylphenyl)-8-H-8-azabicyclo[3.2.1]oct-2-ene D-tartaric acid salt]	–	6.96	8.64	8.09
Cc1ccc(C2=CC3CCC(C2)N3)cc1Cl (single isomer, unassigned; (-)) [(−)-3-(3-Chloro-4-methylphenyl)-8-H-8-azabicyclo[3.2.1]oct-2-ene L-tartaric acid salt]	–	6.85	8.74	8.17
Cc1ccc(C2=CC3CCC(C2)N3)cc1Cl (single isomer, unassigned; (-)) (as salt: tartaric acid salt) [(−)-3-(3-Chloro-4-methylphenyl)-8-H-8-azabicyclo[3.2.1]oct-2-ene L-tartaric acid salt]	156.3 to 161.5	–	–	–
Cc1ccc(C2=CC3CCC(C2)N3)cc1Br (racemic) [(±)-3-(3-Bromo-4-methylphenyl)-8-H-8-azabicyclo[3.2.1]oct-2-ene hydrochloric acid salt]	–	7.89	8.85	7.82
